Data as given in patent US4005096A, “Therapeutically active phenoxyalkylamines” (Biersdorf Aktiengesellschaft, priority 1973, dated 1977).
Counter-ions that a name gives are not always drawn. Like-named read-outs stand apart in the source and are kept apart here.

Tests used:
[1] = system: rats having artificially promoted high blood pressure (according to Goldblatt); experiment: blood pressure reduction in rats having artificially promoted high blood pressure (according to Goldblatt), plethysmographic at base of tail; type: in vivo; settings: Rattus norvegicus, single dose; for change in vivo at 20 mg/kg: 20 mg/kg p.o.
Description: To show the blood pressure reducing properties of typical compounds according to the invention, products of the Examples were administered, to rats having artificially promoted high blood pressure (according to Goldblatt), in the form of solution either by injection under the skin of the back (subcutaneously) or by means of a stomach tube (perorally). 1,2.5 and 4 hours (and 1.75 hours in the case of Compound A) after administration of the substance the systolic and diastolic blood pressures were measured plethysmographically at the base of the tail of the rat. In the following Table I there is given for each of the individual compounds (designated A to M) the average value of the blood pressure in mm Hg before the administration of the compound, the time (determined from the measuring time) of maximum blood pressure reduction and the maximum reduction of the systolic and diastolic blood pressures expressed as a percentage of the initial value after a single administration of the dose.

[2] = acute toxicity (LD50 Mouse), Litchfield and Wilcoxon; settings: in vivo
From the text: Tests to determine the toxicity have been carried out. In each case 6 mice were given a particular dose of the compound to be tested combined with a suitable neutral diluent, administration being carried out perorally, intraveneously and/or intraperitoneally.
The statistical evaluation took place according to the method of J. F. Litchfield, Jr. and F. Wilcoxon in: "Journal of Pharmacology and Experimental Therapeutics", Volume 96 (1949), pages 99-113.
In the following Table II the toxicity of Compounds A to M are given.

[3] = sc, 10 mg/kg s.c., at the time given in the same line, read-out: Maximum blood pressure reduction, diastolic (percent of initial value)
[4] = sc, 10 mg/kg s.c., at the time given in the same line, read-out: Maximum blood pressure reduction, systolic (percent of initial value)

SMILES | change in vivo at 20 mg/kg ([1]; po, read-out: Maximum blood pressure reduction, diastolic (percent of initial value)) | change in vivo at 20 mg/kg ([1]; po, read-out: Maximum blood pressure reduction, systolic (percent of initial value)) | change in vivo at 10 mg/kg [1, 3] | change in vivo at 10 mg/kg [1, 4] | LD50 ([2]; ip) | LD50 ([2]; iv) | LD50 ([2]; po) | change in vivo at 10 mg/kg ([1]; po, 10 mg/kg p.o., read-out: Maximum blood pressure reduction, diastolic (percent of initial value)) | change in vivo at 10 mg/kg ([1]; po, 10 mg/kg p.o., read-out: Maximum blood pressure reduction, systolic (percent of initial value))
COc1ccccc1OCCNCCc1ccncc1 [Compound A, N-[4-Pyridyl-ethyl(2)]-o-methoxy-phenoxyethylamine.2 HCl] | -32% | -28% | -34% | -25% | 150 mg/kg | 53.5 mg/kg | 290 mg/kg |  | 
Clc1ccccc1OCCNCCc1ccncc1 [Compound G, N-[4-Pyridyl-ethyl(2)]-o-chloro-phenoxyethylamine dioxalate dihydrate] |  |  |  |  | ~200 mg/kg | 71.7 mg/kg |  |  | 
Clc1ccccc1OCCCNCCc1ccncc1 [Compound F, N-[4-Pyridyl-ethyl(2)]-o-chloro-phenoxypropylamine dioxalate dihydrate] |  |  |  |  | > 800 mg/kg |  |  |  | 
N#Cc1ccccc1OCCNCCc1ccncc1 [Compound L, N-[4-Pyridyl-ethyl(2)]-o-cyano-phenoxyethylamine dioxalate hydrate] |  |  | -19% | -17% | 91 mg/kg |  | 245 mg/kg |  | 
COc1ccccc1OCCNCc1ncccc1O.Cl.Cl [Compound M, N-[(3-Hydroxy-2-pyridyl)-methyl]-o-methoxy-phenoxyethylamine dihydrochloride] |  |  | -12% | -11% |  | 55.6 mg/kg |  |  | 
COc1ccccc1OCCNCCc1ccccn1 [Compound B, N-[2-Pyridyl-ethyl(2)]-o-methoxy-phenoxyethylamine . 2 HCl] |  |  | -23% | -20% | 150 mg/kg | 31.5 mg/kg |  |  | 
Clc1ccccc1OCCCCNCCc1ccncc1 [Compound K, N-[4-Pyridyl-ethyl(2)]-o-chloro-phenoxybutylamine dioxalate monohydrate] |  |  | -19% | -15% | 182 mg/kg |  | 235 mg/kg |  | 
COc1ccccc1OCCNCc1ccncc1 [Compound E, N-(4-Pyridyl-methyl)-o-methoxy-phenoxyethylamine . 2 HCl] |  |  | -18% | -15% | 364 mg/kg | 90.1 mg/kg | 730 mg/kg | -22% | -20%
Cc1cccnc1CNCCOc1ccccc1Cl [Compound H, N-[(3-Methyl-2-pyridyl)-methyl]-o-chloro-phenoxyethylamineoxalate hydrate] |  |  | -16% | -16% | 220 mg/kg | 50 mg/kg |  |  | 
COc1ccccc1OCCNCc1ccccn1 [Compound D, N-(2-Pyridyl-methyl)-o-methoxy-phenoxyethylamine. 2 HCl] |  |  | -25% | -22% | 150 mg/kg | 51 mg/kg | 750 mg/kg |  | 
COc1ccccc1OCCNCc1cccnc1 [Compound C, N-(3-Pyridyl-methyl)-o-methoxy-phenoxyethylamine .2 HCl] |  |  | -16% | -15% | 150 mg/kg | 73.3 mg/kg | 390 mg/kg |  | 
Cc1cccnc1CNCCOc1ccccc1C#N [Compound J, N-[(3-Methyl-2-pyridyl)-methyl]-o-cyano-phenoxyethylamineoxalate hydrate] |  |  | -12% | -11% |  | 73.3 mg/kg | 660 mg/kg |  | 
